Reference: patent US8889950B2, “Repression of AtGLR3.2 increases plant biomass” (The George Washington University, priority 2006, dated 2014)
“Also recorded” adds a separate entry of the source.

How the values were obtained:
[1] = test system: L-Glu induced ion channel activity in plants; conditions: Mayerhoff et al. 2005. Planta. 222:418; cited from earlier work
[2] = test system: LR primordia; test: Microscopic analysis of LR primordia (LRP) formation and elongation; assay type: in vivo, Arabidopsis thaliana; conditions: 400 μM DNQX vs DMSO control
Excerpt: B. DMSO control had fully emerged LR and more LRPs Arrows indicate an LRP that is inhibited, (A) or a fully emerged LR, (B).
(§1) The genetic and physiological analyses described above were complemented with pharmacological studies where the functions of AtGLRs were inhibited with iGLR specific inhibitors/antagonists. […] L-Glu is the bioactive ligand for iGLRs. […] Thus the inhibitors of AtGLRs can block LR elongation drastically and specifically. Furthermore DNQX mediated LR elongation inhibition is reversed by L-Glu.

[3] = test system: AtGLRs (PR and LR elongation of seedlings); test: Root elongation of seedlings on plates with the iGLR antagonist DNQX; assay type: in vivo, Arabidopsis thaliana
Protocol: A. Control, B. DNQX treated. Note the lack of LR in DNQX-treated seedlings (b) versus LR in DMSO control. Both plates contained 10 μM KNO3. DNQX is an inhibitor (antagonist) of animal iGLRs and plant GLRs. The lateral root in the DMSO control is indicated by an arrow.
Note glutamate is the natural binding chemical (ligand) to animal iGLRS and puataive ligand for plant GLRs.
The present invention describes the function for AtGLRs in N sensing, absorption (FIG. 3, Forde, B G. 2002. Annu. Rev. Plant Biol. 53:203), assimilation (FIG. 12), plant growth and development (FIG. 11, 13). These claims were validated with pharmacological (FIG. 6-9), physiological (FIG. 10, 11, 13) and immunobot analyses of N assimilatory enzymes (FIG. 12).
as §1

[4] = test system: DR5::GUS; test: Histochemical GUS assay in auxin responsive reporter DR5::GUS seedlings; assay type: in vivo, Arabidopsis thaliana
Protocol: DR5::GUS reporter was grown for 10 days and subjected to histochemical GUS staining for 10 hrs. The development of blue color indicates the detection of the presence of auxins that function in the regulation and formation of lateral roots
To assess the role of auxins in the AtGLR response, the effect of DNQX on auxin levels were evaluated. Auxin responsive reporter plants carrying the expression system DR5::GUS were used in the histochemical assays. […] Similar results were reported in phosphate starvation studies (Nacry et al. 2005 Plant Physiol. 138:2061).

O=c1[nH]c2cc([N+](=O)[O-])c([N+](=O)[O-])cc2[nH]c1=O [DNQX, 6,7 dinitroquinoxaline-2-3-[1H,4H]-dione]
L-Glu induced ion channel activity in plants [1]: block L-Glu induced ion channel activity
Further elongation of LR primordia [2]: further elongation of primordia is inhibited; also recorded: inhibits number of LRP formed and their elongation
Number of LRP formed (LR primordia initiation) [2]: reduced the number of LR primordia initiation; also recorded: inhibits number of LRP formed
PR and LR growth and elongation ([3]; DNQX at 400 μM, DMSO control, plates with 10 μM KNO3): inhibit PR and LR elongation; also recorded: inhibit LR growth and elongation
Reversal of DNQX mediated inhibition by coincubation with L-Glu ([3]; coincubation with 10 mM L-glutamate): restored to normal growth; also recorded: can be reversed
Reversibility of DNQX mediated PR and LR inhibition ([3]; seedlings transferred to a media without DNQX): restored to normal growth; also recorded: reversibly and temporarily
Auxin levels in PR and LR apex/primordia (DR5::GUS expression) ([4]; 400 μM DNQX, grown 10 days, GUS staining for 10 hrs, vs control plants): higher levels of auxins in PR and LR primordia; also recorded: hyper accumulation of auxins
LR and PR elongation of DR5::GUS seedlings ([4]; incubated with 400 μM DNQX): inhibition of LR and PR elongation
